Measured values as given in ChEMBL document CHEMBL3608208, “Synthesis, antibacterial and QSAR evaluation of 5-oxo and 5-thio derivatives of 1,4-disubstituted tetrazoles” (2015).
In brackets after ≈: the same amount, converted by molar mass.

Assays:
Assay type in all cases: functional
[1] = tested on: Staphylococcus aureus; assay: Antimicrobial activity against Staphylococcus aureus after 24 hrs by well-diffusion assay
[2] = tested on: Streptococcus sp.; assay: Antimicrobial activity against Streptococcus spp. after 24 hrs by well-diffusion assay
[3] = tested on: Bacillus subtilis; assay: Antimicrobial activity against Bacillus subtilis after 24 hrs by well-diffusion assay
[4] = tested on: Escherichia coli; assay: Antimicrobial activity against Escherichia coli after 24 hrs by well-diffusion assay
[5] = tested on: Klebsiella pneumoniae; assay: Antimicrobial activity against Klebsiella pneumoniae after 24 hrs by well-diffusion assay
[6] = tested on: Proteus mirabilis; assay: Antimicrobial activity against Proteus mirabilis after 24 hrs by well-diffusion assay
[7] = tested on: Pseudomonas aeruginosa; assay: Antimicrobial activity against Pseudomonas aeruginosa after 24 hrs by well-diffusion assay
[8] = tested on: Escherichia coli; assay: Antimicrobial activity against Escherichia coli after 24 hrs by microbroth dilution assay
[9] = tested on: Staphylococcus aureus; assay: Antimicrobial activity against Staphylococcus aureus after 24 hrs by microbroth dilution assay

SMILES	MIC [8] [µg/mL]	MIC [9] [µg/mL]	inhibition zone (IZ) [1] [mm]	inhibition zone (IZ) [2] [mm]	inhibition zone (IZ) [3] [mm]	inhibition zone (IZ) [4] [mm]	inhibition zone (IZ) [5] [mm]	inhibition zone (IZ) [6] [mm]	inhibition zone (IZ) [7] [mm]
c1ccc(CSc2nnnn2-c2ccccc2)cc1			0	0	0	0	0	0	0
O=c1n(Cc2ccccc2)nnn1-c1ccccc1			0	0	0	0	0	7	0
O=c1n(CCCCCCn2nnn(-c3ccccc3)c2=O)nnn1-c1ccccc1			0	0	0	0	0	0	0
c1ccc(-n2nnnc2SCCCCCCSc2nnnn2-c2ccccc2)cc1			0	0	0	0	0	0	0
O=c1n(CCO)nnn1-c1ccccc1	8 (≈ 38.8 µM)	5.29 (≈ 25.7 µM)	0	0	12	11	13	12	0
O=c1n(CCOCc2ccccc2)nnn1-c1ccccc1			0	0	0	0	0	20	0
O=c1n(CO)nnn1-c1ccccc1	1.76 (≈ 9.16 µM)	0.19 (≈ 0.989 µM)	38	42	33	30	22	34	24
CC(=O)OCn1nnn(-c2ccccc2)c1=O	13.9 (≈ 59.3 µM)	2.66 (≈ 11.4 µM)	9	10	14	0	0	11	0

Continued, in another order:

MIC [8] [µg/mL]	MIC [9] [µg/mL]	SMILES	inhibition zone (IZ) [1] [mm]	inhibition zone (IZ) [2] [mm]	inhibition zone (IZ) [3] [mm]	inhibition zone (IZ) [4] [mm]	inhibition zone (IZ) [5] [mm]	inhibition zone (IZ) [6] [mm]	inhibition zone (IZ) [7] [mm]
1.77 (≈ 9.91 µM)	1.76 (≈ 9.9 µM)	Sc1nnnn1-c1ccccc1	18	12	16	14	8	19	11
15.9 (≈ 60 µM)	5.29 (≈ 20 µM)	CCOC(=O)CSc1nnnn1-c1ccccc1	9	13	13	0	0	14	0
1.37 (≈ 4.44 µM)	1.37 (≈ 4.44 µM)	O=C(O)CCC(=O)OCn1nnn(-c2ccccc2)c1=S	24	19	12	11	16	11	17
37 (≈ 149 µM)	37 (≈ 149 µM)	CC(=O)OCCn1nnn(-c2ccccc2)c1=O	0	0	9	12	0	15	0
0.58 (≈ 2.79 µM)	1.76 (≈ 8.45 µM)	OCn1nnn(-c2ccccc2)c1=S	32	42	30	31	19	26	23
13.9 (≈ 55.5 µM)	4.62 (≈ 18.5 µM)	CC(=O)OCn1nnn(-c2ccccc2)c1=S	10	0	12	0	0	15	0
1.54 (≈ 9.52 µM)	1.54 (≈ 9.52 µM)	O=c1[nH]nnn1-c1ccccc1	12	11	14	10	9	0	0
